According to ChEMBL document CHEMBL1148442, “Design, synthesis, and evaluation of metabolism-based analogues of haloperidol incapable of forming MPP+-like species” (J Med Chem, 2004):

What was measured:
[1] = target: D(2) dopamine receptor (Homo sapiens) (UniProt P14416)
Description: Displacement of [3H]spiperone from human Dopamine receptor D2

[2] = target: T1, D(4) dopamine receptor (Homo sapiens) (UniProt P21917)
T1 sequence (whole entry): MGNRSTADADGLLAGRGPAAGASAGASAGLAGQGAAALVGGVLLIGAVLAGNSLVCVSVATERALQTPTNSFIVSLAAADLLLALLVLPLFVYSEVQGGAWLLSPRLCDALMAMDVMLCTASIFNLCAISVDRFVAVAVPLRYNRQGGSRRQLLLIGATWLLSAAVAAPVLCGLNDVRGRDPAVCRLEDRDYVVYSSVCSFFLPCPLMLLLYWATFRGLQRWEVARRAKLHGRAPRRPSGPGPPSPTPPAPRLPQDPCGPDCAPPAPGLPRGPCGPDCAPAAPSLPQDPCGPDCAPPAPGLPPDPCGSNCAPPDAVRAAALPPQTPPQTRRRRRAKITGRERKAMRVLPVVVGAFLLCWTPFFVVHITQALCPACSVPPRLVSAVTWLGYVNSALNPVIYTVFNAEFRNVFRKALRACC
Description: Displacement of [3H]spiperone from human Dopamine receptor D4

[3] = target: D(3) dopamine receptor (Homo sapiens) (UniProt P35462)
Sequence of D(3) dopamine receptor (Homo sapiens) (P35462 whole entry): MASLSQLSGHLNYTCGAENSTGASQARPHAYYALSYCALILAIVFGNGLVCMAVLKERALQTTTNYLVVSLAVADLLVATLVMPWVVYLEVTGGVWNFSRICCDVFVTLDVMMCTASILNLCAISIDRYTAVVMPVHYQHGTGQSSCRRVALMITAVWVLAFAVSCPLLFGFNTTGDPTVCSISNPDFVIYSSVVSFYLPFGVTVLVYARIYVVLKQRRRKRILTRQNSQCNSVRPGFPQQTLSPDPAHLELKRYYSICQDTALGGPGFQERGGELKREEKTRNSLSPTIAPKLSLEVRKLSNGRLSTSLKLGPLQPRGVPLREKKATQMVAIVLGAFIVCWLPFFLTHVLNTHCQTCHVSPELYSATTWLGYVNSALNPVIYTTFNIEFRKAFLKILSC
Description: Displacement of [3H]7-OH-DPAT from human Dopamine receptor D3

Sequence of D(2) dopamine receptor (Homo sapiens) (P14416 whole entry): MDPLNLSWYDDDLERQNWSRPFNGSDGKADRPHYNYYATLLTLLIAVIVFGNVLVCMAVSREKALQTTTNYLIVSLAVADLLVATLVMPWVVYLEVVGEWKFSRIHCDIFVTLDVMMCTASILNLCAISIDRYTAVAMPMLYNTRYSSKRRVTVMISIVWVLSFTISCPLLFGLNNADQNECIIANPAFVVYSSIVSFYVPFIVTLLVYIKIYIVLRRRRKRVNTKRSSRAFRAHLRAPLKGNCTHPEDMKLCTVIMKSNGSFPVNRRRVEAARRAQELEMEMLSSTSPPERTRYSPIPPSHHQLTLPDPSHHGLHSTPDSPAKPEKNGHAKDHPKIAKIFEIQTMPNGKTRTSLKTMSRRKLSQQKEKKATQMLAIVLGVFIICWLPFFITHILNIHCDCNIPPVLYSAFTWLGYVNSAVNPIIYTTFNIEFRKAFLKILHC

SMILES	pKi [1]	pKi [2]	pKi [3]
O=C(CCCN1CCCC(O)(c2ccc(Cl)cc2)CC1)c1ccc(F)cc1 (stereo not given)	8.96		
CN(CCCC(=O)c1ccc(F)cc1)CCCC(O)c1ccc(Cl)cc1 (stereo not given)		6.72	6.79
O=C(CCCN1CCC(C(O)c2ccc(Cl)cc2)CC1)c1ccc(F)cc1 (stereo not given)	7.62	6.91	7.11
O=C(CCCN1CCC(CO)(c2ccc(Cl)cc2)CC1)c1ccc(F)cc1	7.81	7.11	6.96
O=C(CCCN1CCC(O)(Cc2ccc(Cl)cc2)CC1)c1ccc(F)cc1	8.1	7.23	8.05
O=C(CCCN1CCC(c2ccc(Cl)cc2)C1)c1ccc(F)cc1 (stereo not given)	7.81	7.82	
O=C(CCCN1CCC(CCO)(c2ccc(Cl)cc2)C1)c1ccc(F)cc1 (stereo not given)	7.64	6.71	7.49
O=C(CCC[n+]1ccc(-c2ccc(Cl)cc2)cc1)c1ccc(F)cc1	< 6	< 6	< 6
O=C(CCCN1CCC(CO)(c2ccc(Cl)cc2)C1)c1ccc(F)cc1 (stereo not given)	7.36	7.62	6.78
O=C(CCCN1CCC(c2ccc(Cl)cc2)CC1)c1ccc(F)cc1		7.59	7.34
